Results: patent publication US4419123A, “Herbicidal 4-trifluoromethyl-3'-carbon-substituted-4'-substituted diphenyl ethers” (Rohm and Haas Company, priority 1981, dated 1983)

Experiments:
[1] = Preemergence herbicidal activity (% control) against monocot weeds; assay type: in vivo; conditions: pre-emergence, 336 h, average, about two weeks after application, read-out: Herbicidal activity (% control), preemergence, monocots; for activity at 2241.7 g/ha: 2 lb./A.; for activity at 4483.4 g/ha: 4 lb./A.
From the text: (§1) barnyardgrass (Echinochloa crusgalli) crabgrass (Digitaria spp.) nutsedge (Cyperus esculentus)
(§2) At 2 and 4 pounds per acre:
(§3) **Bermudagrass (Cynodon dactylon)
(§4) *downy brome (Bromus tectorum) foxtail (Setaria faberii)
(§5) Johnsongrass (Sorghum halepense) […]
(§6) quackgrass (Agropyron repens)
(§7) *ryegrass (Lolium perenne)
(§8) *wild oats (Avena factua)
(§9) *yellow millet (Panicum miliaceum)
(§10) The following test procedure is employed.

[2] = Postemergence herbicidal activity (% control) against monocot weeds; assay type: in vivo; conditions: post-emergence, 336 h, average, about two weeks after application, read-out: Herbicidal activity (% control), postemergence, monocots; for activity at 2241.7 g/ha: 2 lb./A.; for activity at 4483.4 g/ha: 4 lb./A.
From the text: as §1, §2, §3, §4, §5, §6, §7, §8, §9, §10

rice = assay: Crop tolerance (selective herbicidal activity), rice; assay type: in vivo
Experimental: as §10
(§11) Following the general test procedure of Example 37, diphenyl ethers are evaluated for significant tolerance (as shown by 50% or less kill of the test crop at levels of application which give more than 50% kill of many or all of the weeds of Example 73) towards some or all of the following common agronomic crops (not all compounds tested against all crops): alfalfa, snapbeans, corn, cotton, cucumbers, peanuts, rape, rice, safflower, soybeans, tomatoes, and wheat.

[3] = Preemergence herbicidal activity (% control) against dicot weeds; conditions: pre-emergence, 336 h; for activity at 2241.7 g/ha: read-out: Herbicidal activity (% control), preemergence, dicots, 2 lb./A., average, about two weeks after application; for activity at 4483.4 g/ha: read-out: Herbicidal activity (% control), preemergence, dicots, 4 lb./A., average, about two weeks after application
[4] = Postemergence herbicidal activity (% control) against dicot weeds; conditions: post-emergence, 336 h; for activity at 2241.7 g/ha: read-out: Herbicidal activity (% control), postemergence, dicots, 2 lb./A., average, about two weeks after application; for activity at 4483.4 g/ha: read-out: Herbicidal activity (% control), postemergence, dicots, 4 lb./A., average, about two weeks after application
peanuts = assay: Crop tolerance (selective herbicidal activity), peanuts; assay type: in vivo
Experimental: as §10, §11

corn = assay: Crop tolerance (selective herbicidal activity), corn; assay type: in vivo
Experimental: as §10, §11

soybeans = assay: Crop tolerance (selective herbicidal activity), soybeans; assay type: in vivo; conditions: preemergence applications
Experimental: as §10, §11

[5] = postemergence applications or applications on transplanted rice

Compound	activity at 2241.7 g/ha [1] [%]	activity at 4483.4 g/ha [1] [%]	activity at 2241.7 g/ha [2] [%]	activity at 4483.4 g/ha [2] [%]	Tolerance to rice (rice; [5])	activity at 2241.7 g/ha [3] [%]	activity at 4483.4 g/ha [3] [%]	activity at 2241.7 g/ha [4] [%]	activity at 4483.4 g/ha [4] [%]	Tolerance to peanuts (peanuts; postemergence applications)	Tolerance to corn (corn; postemergence applications)	Tolerance to peanuts (peanuts; preemergence applications)	Tolerance to soybeans (soybeans)	Tolerance to corn (corn; preemergence applications)	Tolerance to rice (rice; preemergence applications)	activity at 11208.5 g/ha ([1]; 10 lb./A.) [%]	activity at 11208.5 g/ha ([2]; 10 lb./A.) [%]	activity at 11208.5 g/ha ([3]; read-out: Herbicidal activity (% control), preemergence, dicots, 10 lb./A., average, about two weeks after application) [%]
CN(C)c1cc(Oc2ccc(C(F)(F)F)cc2Cl)ccc1[N+](=O)[O-] [Example 20, 2-chloro-α,α,α-trifluoro-p-tolyl-3-dimethylamino-4-nitrophenyl ether]	80	88	80	78	Tolerance (significant tolerance (as shown by 50% or less kill of the test crop at levels of application which give more than 50% kill of many or all of the weeds of Example 73))	93	99	97	88	–	–	–	–	–	–	–	–	–
O=[N+]([O-])c1ccc(Oc2ccc(C(F)(F)F)cc2Cl)cc1Cl [Example 37, 2-chloro-α,α,α-trifluoro-p-tolyl-3-chloro-4-nitrophenyl ether]	100	99	100	92	–	–	100	–	100	Tolerance (significant tolerance (as shown by 50% or less kill of the test crop at levels of application which give more than 50% kill of many or all of the weeds of Example 73))	–	–	–	–	–	–	–	–
COC(=O)c1cc(Oc2ccc(C(F)(F)F)cc2Cl)ccc1[N+](=O)[O-] [Example 49, 2-chloro-α,α,α-trifluoro-p-tolyl-3-carbomethoxy-4-nitrophenyl ether]	100	92	77	86	–	100	95	100	100	–	Tolerance (significant tolerance (as shown by 50% or less kill of the test crop at levels of application which give more than 50% kill of many or all of the weeds of Example 73))	Tolerance (significant tolerance (as shown by 50% or less kill of the test crop at levels of application which give more than 50% kill of many or all of the weeds of Example 73))	Tolerance (significant tolerance (as shown by 50% or less kill of the test crop at levels of application which give more than 50% kill of many or all of the weeds of Example 73))	–	–	–	–	–
CC(Oc1cc(Oc2ccc(C(F)(F)F)cc2Cl)ccc1[N+](=O)[O-])C(=O)N(C)C (stereo not drawn) [Example 53]	98	98	81	79	Tolerance (significant tolerance (as shown by 50% or less kill of the test crop at levels of application which give more than 50% kill of many or all of the weeds of Example 73))	100	83	100	100	Tolerance (significant tolerance (as shown by 50% or less kill of the test crop at levels of application which give more than 50% kill of many or all of the weeds of Example 73))	Tolerance (significant tolerance (as shown by 50% or less kill of the test crop at levels of application which give more than 50% kill of many or all of the weeds of Example 73))	Tolerance (significant tolerance (as shown by 50% or less kill of the test crop at levels of application which give more than 50% kill of many or all of the weeds of Example 73))	Tolerance (significant tolerance (as shown by 50% or less kill of the test crop at levels of application which give more than 50% kill of many or all of the weeds of Example 73))	–	–	–	–	–
O=[N+]([O-])c1ccc(Oc2ccc(C(F)(F)F)cc2Cl)cc1OCC(F)(F)F [Example 11]	88	81	100	82	Tolerance (significant tolerance (as shown by 50% or less kill of the test crop at levels of application which give more than 50% kill of many or all of the weeds of Example 73))	99	98	–	99	–	–	–	Tolerance (significant tolerance (as shown by 50% or less kill of the test crop at levels of application which give more than 50% kill of many or all of the weeds of Example 73))	Tolerance (significant tolerance (as shown by 50% or less kill of the test crop at levels of application which give more than 50% kill of many or all of the weeds of Example 73))	–	–	–	–
CNC(=O)C(C)Oc1cc(Oc2ccc(C(F)(F)F)cc2Cl)ccc1[N+](=O)[O-] (stereo not drawn) [Example 52]	98	79	93	87	–	75	67	100	100	–	Tolerance (significant tolerance (as shown by 50% or less kill of the test crop at levels of application which give more than 50% kill of many or all of the weeds of Example 73))	Tolerance (significant tolerance (as shown by 50% or less kill of the test crop at levels of application which give more than 50% kill of many or all of the weeds of Example 73))	Tolerance (significant tolerance (as shown by 50% or less kill of the test crop at levels of application which give more than 50% kill of many or all of the weeds of Example 73))	Tolerance (significant tolerance (as shown by 50% or less kill of the test crop at levels of application which give more than 50% kill of many or all of the weeds of Example 73))	Tolerance (significant tolerance (as shown by 50% or less kill of the test crop at levels of application which give more than 50% kill of many or all of the weeds of Example 73))	–	–	–
Cc1cc(Oc2ccc(C(F)(F)F)cc2C#N)ccc1[N+](=O)[O-] [Example 9]	81	90	82	97	–	67	66	75	81	–	–	–	–	–	–	99	100	92
O=[N+]([O-])c1ccc(Oc2ccc(C(F)(F)F)cc2Cl)cc1O [Example 10, 2-Chloro-α,α,α-trifluoro-p-tolyl-3-hydroxy-4-nitrophenylether]	66	70	17	67	–	70	100	85	98	–	–	–	–	–	–	–	–	–
CCN(C(=O)NC)c1cc(Oc2ccc(C(F)(F)F)cc2Cl)ccc1[N+](=O)[O-] [Example 55, 2-Chloro-α,α,α-trifluoro-p-tolyl-3-(3-methyl-1-ethylureido)-4-nitrophenyl ether]	–	91	31	69	–	–	73	96	95	–	–	–	–	–	–	–	–	–
CC(Oc1cc(Oc2ccc(C(F)(F)F)cc2Cl)ccc1[N+](=O)[O-])C(=O)O (stereo not drawn) [Example 25, 2-Chloro-α,α,α-trifluoro-p-tolyl-3-(1-carboxyethoxy)-4-nitrophenyl ether]	40	87	88	97	–	93	88	100	100	–	–	–	–	–	–	–	–	–
